The numbers were not newly measured in patent US5462964A, “Dipeptide boronic acid inhibitors of trypsin-like enzymes” (The Du Pont Merck Pharmaceutical Company, priority 1993, dated 1995), which cites them from elsewhere.

pKi: −log10 of the molar value.

Data set [1] concerns the target T1, thrombin (Homo sapiens, UniProt P00734). Particulars: reversible inhibitor of thrombin; literature / EP 293 881.
Data set [2] concerns the target T1, thrombin. Conditions: Kettner and Shaw Thromb. Res. 14, 969 (1979).
Data set [3] deals with blood coagulation. Conditions: both in vitro and in vivo; EP 293 881.
For data set [4], the target named is chymotrypsin (Bos taurus, UniProt P00766). Particulars: Matteson et al. J. Am. Chem. Soc. 103, 5241 (1981).

What is called pKi is −log10 of the Ki, conventionally taken in molar units. For the molecule `CC(=O)N[C@H](Cc1ccccc1)C(=O)N1CCC[C@H]1C(=O)N[C@H](C=O)CCCNC(=N)N` [Ac-D-Phe-Pro-Arg-H], the pKi in data set [1] was 7.12. In the case of `CC(=O)NC(Cc1ccccc1)C(=O)N1CCCC1C(=O)NC(CCCNC(=N)N)C(=O)CCl` [Ac-D-Phe-Pro-ArgCH2 Cl], the “inhibitor of human thrombin” value in data set [2] is “potent and selective irreversible inhibitor”. `CC(=O)N[C@H](Cc1ccccc1)C(=O)N1CCC[C@H]1C(=O)N[C@@H](CCCN=C(N)N)B(O)O` [Ac-D-Phe-Pro-boroArgOH]: the “inhibition of blood coagulation” value in data set [3] is recorded as “highly effective”. With `CC(=O)N[C@@H](Cc1ccccc1)B(O)O` [Ac-boroPhe-OH, (R)-1-acetamido-2-phenylethane boronic acid], the negative logarithm of the Ki (pKi) in data set [4] was 5.40.
